# Data as given in article PMC5321741, “Arylmethylamino steroids as antiparasitic agents” (Nature Communications, 2017).
# Values joined by “and” are separate entries in the source; they are usually repeats but may differ in a detail not shown here. Equal values may be shown once. Where a name gives a salt, the structure may show the parent alone. Read-outs that look alike come from different tables or passages of the source.
# Key:
# [1] = test system: P. falciparum (strain 3D7); assay: 72 h 3H-hypoxanthine incorporation assay, asexual blood stages; assay type: cell-based, Plasmodium falciparum; settings: Plasmodium falciparum
# HUVEC = assay: antiproliferative activity on HUVEC cells; assay type: cell-based; settings: Homo sapiens, HUVEC, 72 h
# Method: (§1) Compounds were tested for their antiproliferative activity on HUVEC and K-562 cells and for cytotoxicity on HeLa cells using standard protocols. K-562 (DSM ACC 10), HUVEC (ATCC CRL-1730), and HeLa (DSM ACC 57) cells were cultured as described previously. To assay the antiproliferative and cytotoxic effect, procedures were carried out as described before. In brief, for each experiment with K-562 and HeLa ∼10,000 cells were seeded per well of the 96-well microplates. For the cytotoxicity assay, the HeLa cells were preincubated for 48 h without the test substances. Cells were incubated for 72 h at 37 °C in a humidified atmosphere and 5% CO2. Suspension cultures of K-562 in microplates were analysed by an electronic cell analyzer system CASY 1 (SCHÄRFE, Reutlingen, Germany). The monolayer of the HUVEC and HeLa cells were fixed by glutaraldehyde (MERCK) and stained with a 0.05% solution of methylene blue (SERVA). After gently washing, the stain was eluted by 0.2 ml of 0.33 N HCl in the wells. The optical densities were measured at 660 nm in a microplate reader. The calculations of the different values of GI50 and CC50 were performed with the software Magellan (TECAN).
# K-562 = assay: antiproliferative activity on K-562 cells; assay type: cell-based; settings: Homo sapiens, K562, 72 h
# Method: as §1
# [2] = cytotoxicity on HeLa cells; assay type: cell-based; settings: human, HeLa cells
# Method: as §1
# [3] = test system: adult Schistosoma mansoni; assay: schistosome in vitro culture with inhibitor treatment; assay type: cell-based
# [4] = test system: P. berghei GFP ANKA malaria strain; assay: P. berghei mouse model (Peter's test); assay type: in vivo, Plasmodium berghei in NMRI mice; settings: for % activity (reduction of parasitaemia) / % of control / Parasitized RBC over 100, Average / Parasitized RBC over 100, individual mice M1-M3: day 4
# Method: The animal experiments described here were performed at the Swiss Tropical and Public Health Institute (Swiss TPH, Basel, Switzerland), they were approved by the Swiss Cantonal Authorities (‘Kantonales Veterinäramt Basel Stadt') adhering to local and national regulations of laboratory animal welfare in Switzerland. The best compounds were tested in the murine P. berghei model essentially as described. The infection was initiated at day 0 with the P. berghei GFP ANKA malaria strain (donation from AP Waters and CJ Janse, Leiden University). From donor mice (female NMRI mice, 18–20 grams (about 3 weeks) from Charles River Germany) with ∼30% parasitaemia, heparinized blood was taken and diluted in physiological saline to 10^8 parasitized erythrocytes/ml. An aliquot (0.2 ml) of this suspension was injected intravenously into experimental and control groups of mice (female NMRI mice, 18–20 grams (about 3 weeks) from Charles River Germany). Usually, in untreated control mice parasitaemia rose regularly to ∼30% by day 3 post-infection. Control mice died between days 6 and 7 post infection. In the experiments described here, however, control animals (n=5) were killed on day 4 post infection for ethical reasons.
# The steroid compounds were prepared at an appropriate concentration as a solution/suspension in Tween 80/alcohol (7:3, Tween 80 and absolute ethanol, respectively), followed by a 10x dilution in water. […] The route of administration was i.p., p.o., s.c. in a volume of 10 ml kg^−1.
# The degree of infection (parasitaemia expressed in % of infected erythrocytes) was determined by FACS analysis on day 4 (96 h post infection). The difference of the mean infection rate of the control group (=100%) to the test group was calculated and expressed as a percent reduction. For example, activity determination with a mean of 2% parasitaemia in treated mice and a mean of 40% parasitaemia in the control animals is calculated as follows: (40−2%)/40% × 100=95% activity. The survival time in days was recorded up to 30 days after infection. A compound was considered curative if the animal survived to day 30 after infection with no detectable parasites (confirmed by light microscopy).
# P. falciparum NF54 = assay: IC50 speed assay; assay type: cell-based, Plasmodium falciparum; settings: for IC50: Plasmodium falciparum, mean±s.d., three biological replicates
# Method: To assess the rapidity of growth inhibition induced by the steroid compounds, the so-called IC50 speed assay[16] was conducted for compound 1o on P. falciparum NF54 (Fig. 2a,b).
# haem = assay: ESI-MS collision-induced dissociation of haem adducts; assay type: binding; settings: 50 µM haem and 50 µM substrate
# Method: Compound Molar Adduct DV50 Bottom Dissociation mass [Haem+S] (V) plateau Constant
# Supplementary Table 7. ESI-MS-CID data (m/z, calculated DV50 = dissociation voltage at 50% and % bottom plateau) of the [haematin-drug]+ adducts and dissociation constants (KD, µM) of the haematin-drug complexes measured with absorption spectrophotometric titrations.
# Conditions: 50 µM haem and 50 µM substrate in H2O/CH3CN (5/95) + 0.1% formic acid.
# Stability responses of the haem substrate adduct were obtained via ESI-CID experiments.
# Positive mode; fragmentor voltage from 20 V to 400 V with 20 V increments. […]
# - 41/120 g), and complete dissolution was achieved using an ultrasonic bath. All solutions were protected from daylight to avoid any photochemical degradation. All the physiochemical measurements were carried out at 25.0(2) °C. […]
# Electrospray mass spectrometric measurements stopping point
# Electrospray mass spectra of the haem complexes were obtained with an Agilent Technologies 6120 quadrupole equipped with an electrospray (ESI) interface. For
# [5] = 3D7, 72 h 3H-hypoxanthine incorporation, asexual blood stages, read-out: Antiplasmodial activity IC50 Pf (3D7)
# [6] = NF54, read-out: IC50 24 h, 24 h compound incubation
# [7] = NF54, 48 h compound incubation, read-out: IC50 48 h
# [8] = NF54, 72 h compound incubation, read-out: IC50 72 h
smiles,measurement,setting,value
Oc1ccccc1CNC1CCCCCCC1 (as salt: perchlorate) [17c],melting point,,136 to 138.5 °C
Oc1ccccc1CNc1ccccc1 (as salt: perchlorate) [19c],melting point,,183 to 186 °C
Oc1ccccc1CNc1ccc2ccc3cccc4ccc1c2c34 [20c],IC50,"[1]; 3D7, non-steroid-derived analogs, read-out: IC50 on P. falciparum 3D7 asexual blood stages",5.6 µM
same,melting point,,160 to 163 °C
Oc1ccccc1CNC1CCCCC1 (as salt: perchlorate) [16c],melting point,,152 to 153 °C
COc1ccc2c(c1)CCC1C2CC[C@@]2(C)C1CC[C@H]2NCc1ccccc1O (stereo partly shown) [1c],IC50,[1]; [5],0.0074 µM
same,GI50,HUVEC,17.1 µM
same,GI50,K-562,5.9 µM
same,CC50 at 72 h,[2],> 128 µM
same,morphological effects (confocal laser scanning microscopy),"[3]; 5 μM, 6–13 days",Aggregate-like degradation products of the gastrodermis occurred within the gut lumen
same,time to death of worms,[3]; 10 µM,6 days
same,time to death of worms,[3]; 20 µM,2 days
same,starting concentration with negative influence on worm physiology,"[3]; pairing stability, egg production, survival, bright-field microscopy",1 μM
same,"Mouse survival in days, Average",[4]; 3x 10 mg/kg p.o.,9 days
same,"Mouse survival in days, individual mice M1-M3",[4]; 3x 10 mg/kg p.o.,8 days and 11 days and 7 days
same,% activity (reduction of parasitaemia),[4]; 3x 10 mg/kg p.o.,47%
same,% of control,[4]; 3x 10 mg/kg p.o.,53%
same,"Parasitized RBC over 100, Average",[4]; 3x 10 mg/kg p.o.,36
same,"Parasitized RBC over 100, individual mice M1-M3",[4]; 3x 10 mg/kg p.o.,28 and 26 and 53
same,"Mouse survival in days, Average",[4]; 3x 10 mg/kg s.c.,7 days
same,"Mouse survival in days, individual mice M1-M3",[4]; 3x 10 mg/kg s.c.,7 days and 6 days and 8 days
same,% activity (reduction of parasitaemia),[4]; 3x 10 mg/kg s.c.,< 40%
same,% of control,[4]; 3x 10 mg/kg s.c.,83%
same,"Parasitized RBC over 100, Average",[4]; 3x 10 mg/kg s.c.,56
same,"Parasitized RBC over 100, individual mice M1-M3",[4]; 3x 10 mg/kg s.c.,57 and 68 and 42
same,"Mouse survival in days, Average",[4]; 3x 30 mg/kg p.o.,13 days
same,"Mouse survival in days, individual mice M1-M3",[4]; 3x 30 mg/kg p.o.,13 days and 12 days and 14 days
same,% activity (reduction of parasitaemia),[4]; 3x 30 mg/kg p.o.,99.4%
same,% of control,[4]; 3x 30 mg/kg p.o.,0.65%
same,"Parasitized RBC over 100, Average",[4]; 3x 30 mg/kg p.o.,0.44
same,"Parasitized RBC over 100, individual mice M1-M3",[4]; 3x 30 mg/kg p.o.,0.53 and 0.31 and 0.48
same,"Mouse survival in days, Average",[4]; 3x 30 mg/kg s.c.,14 days
same,"Mouse survival in days, individual mice M1-M3",[4]; 3x 30 mg/kg s.c.,14 days
same,% activity (reduction of parasitaemia),[4]; 3x 30 mg/kg s.c.,62%
same,% of control,[4]; 3x 30 mg/kg s.c.,38%
same,"Parasitized RBC over 100, Average",[4]; 3x 30 mg/kg s.c.,26
same,"Parasitized RBC over 100, individual mice M1-M3",[4]; 3x 30 mg/kg s.c.,21 and 24 and 32
same,"Mouse survival in days, Average",[4]; 3x 100 mg/kg p.o.,15 days
same,"Mouse survival in days, individual mice M1-M3",[4]; 3x 100 mg/kg p.o.,15 days and 17 days and 14 days
same,% activity (reduction of parasitaemia),[4]; 3x 100 mg/kg p.o.,99.7%
same,% of control,[4]; 3x 100 mg/kg p.o.,0.30%
same,"Parasitized RBC over 100, Average",[4]; 3x 100 mg/kg p.o.,0.20
same,"Parasitized RBC over 100, individual mice M1-M3",[4]; 3x 100 mg/kg p.o.,0.23 (2×) and 0.14
C[C@H]1[C@H](OC(=O)CCC(=O)O)O[C@@H]2O[C@@]3(C)CC[C@H]4[C@H](C)CC[C@@H]1[C@@]24OO3 [Artesunate],IC50,P. falciparum NF54; [6],0.0055 ± 0.0008 µM
same,IC50,P. falciparum NF54; [7],0.0057 ± 0.0005 µM
same,IC50,P. falciparum NF54; [8],0.0047 ± 0.0003 µM
COc1ccc2c(c1)CCC1C2CC[C@@]2(C)C1CC[C@@H]2NCc1ccccc1O (stereo partly shown) [2c],IC50,[1]; [5],0.073 µM
same,GI50,HUVEC,10 µM
same,GI50,K-562,5.1 µM
same,CC50 at 72 h,[2],42.9 µM
same,"Mouse survival in days, Average",[4]; 3x 10 mg/kg s.c.,10 days
same,% activity (reduction of parasitaemia),[4]; 3x 10 mg/kg s.c.,47%
same,"Mouse survival in days, Average",[4]; 3x 30 mg/kg s.c.,14 days
same,% activity (reduction of parasitaemia),[4]; 3x 30 mg/kg s.c.,87%
same,"Mouse survival in days, Average",[4]; 3x 100 mg/kg p.o.,16 days
same,% activity (reduction of parasitaemia),[4]; 3x 100 mg/kg p.o.,99%
CCc1nc(N)nc(N)c1-c1ccc(Cl)cc1 [Pyrimethamine],"speed of action (IC50 shift across 24, 48, 72 h)",P. falciparum NF54,slow-acting compound
same,IC50,P. falciparum NF54; [6],0.22 ± 0.061 µM
same,IC50,P. falciparum NF54; [7],0.0304 ± 0.0076 µM
same,IC50,P. falciparum NF54; [8],0.0152 ± 0.0016 µM
COc1ccc2c(c1)CCC1C2CC[C@@]2(C)C1CC[C@@H]2N(CCCn1ccnc1)CCc1ccccn1 (stereo partly shown) [STS 948],IC50,[1]; [5],0.675 µM
same,GI50,HUVEC,7.2 µM
same,GI50,K-562,6.6 µM
same,DV50 (dissociation voltage at 50%) of haem adduct,"haem; ESI-CID, 20 V to 400 V",367 V
same,Bottom plateau (adduct remaining at 400 V),haem; fragmentor voltage 400 V,36%
same,CC50 at 72 h,[2],18.3 µM
Oc1ccccc1CNC1CCCC1 (as salt: perchlorate) [15c],melting point,,168 to 169 °C
